Legend:
Test in all cases: relative viability (nuclei count vs DMSO), 5 days (fraction); higher = more cells survive
201T = test system: 201T
In short: (§1)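 One day after seeding in 1536-well plates, lung cancer cell lines were dosed by pin tool. Dosing was either single-drug or a fixed anchor-drug dose plus five library-drug doses (not always all listed) in √10 steps. After 5 days, nuclei were stained in one fix-and-stain step and counted on 4× images, and relative viability is the nuclei count of treated wells over that of vehicle wells, given as the median of duplicate plates.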

ABC-1 = test system: ABC-1
In short: as §1

BEN = test system: BEN
In short: as §1

HCC-366 = test system: HCC-366
In short: as §1

HCC-44 = test system: HCC-44
In short: as §1

HCC-78 = test system: HCC-78
In short: as §1

LK-2 = test system: LK-2
In short: as §1

LOU-NH91 = test system: LOU-NH91
In short: as §1

NCI-H1355 = test system: NCI-H1355
In short: as §1

NCI-H1650 = test system: NCI-H1650
In short: as §1

NCI-H1666 = test system: NCI-H1666
In short: as §1

NCI-H1734 = test system: NCI-H1734
In short: as §1

NCI-H1755 = test system: NCI-H1755
In short: as §1

NCI-H2009 = test system: NCI-H2009
In short: as §1

NCI-H2228 = test system: NCI-H2228
In short: as §1

NCI-H2347 = test system: NCI-H2347
In short: as §1

NCI-H2405 = test system: NCI-H2405
In short: as §1

NCI-H358 = test system: NCI-H358
In short: as §1

NCI-H520 = test system: NCI-H520
In short: as §1

NCI-H727 = test system: NCI-H727
In short: as §1

NCI-H838 = test system: NCI-H838
In short: as §1

SW 1573 = test system: SW 1573
In short: as §1

UMC-11 = test system: UMC-11
In short: as §1

O=c1[nH]c2ccccc2n1C1CCN(CCCC(c2ccc(F)cc2)c2ccc(F)cc2)CC1 [Pimozide] + CC(=O)c1c(C)c2cnc(Nc3ccc(N4CCNCC4)cn3)nc2n(C2CCCC2)c1=O [Palbociclib] (partner 0.5 µM)
relative viability (201T; first compound 0.08 µM): 0.363
relative viability (201T; first compound 0.253 µM): 0.356
relative viability (201T; first compound 0.8 µM): 0.337
relative viability (201T; first compound 2.53 µM): 0.314
relative viability (201T; first compound 8 µM): 0.342
relative viability (ABC-1; first compound 0.08 µM): 0.527
relative viability (ABC-1; first compound 0.253 µM): 0.565
relative viability (ABC-1; first compound 0.8 µM): 0.874
relative viability (ABC-1; first compound 2.53 µM): 0.614
relative viability (ABC-1; first compound 8 µM): 0.462
relative viability (BEN; first compound 0.08 µM): 0.442
relative viability (BEN; first compound 0.253 µM): 0.472
relative viability (BEN; first compound 0.8 µM): 0.451
relative viability (BEN; first compound 2.53 µM): 0.457
relative viability (BEN; first compound 8 µM): 0.494
relative viability (HCC-366; first compound 0.08 µM): 0.38
relative viability (HCC-366; first compound 0.253 µM): 0.404
relative viability (HCC-366; first compound 0.8 µM): 0.345
relative viability (HCC-366; first compound 2.53 µM): 0.379
relative viability (HCC-366; first compound 8 µM): 0.357
relative viability (HCC-44; first compound 0.08 µM): 0.975
relative viability (HCC-44; first compound 0.253 µM): 0.982
relative viability (HCC-44; first compound 0.8 µM): 0.946
relative viability (HCC-44; first compound 2.53 µM): 0.925
relative viability (HCC-44; first compound 8 µM): 0.859
relative viability (HCC-78; first compound 0.08 µM): 0.514
relative viability (HCC-78; first compound 0.8 µM): 0.431
relative viability (HCC-78; first compound 2.53 µM): 0.421
relative viability (HCC-78; first compound 8 µM): 0.524
relative viability (LK-2; first compound 0.08 µM): 0.646
relative viability (LK-2; first compound 0.253 µM): 0.599
relative viability (LK-2; first compound 0.8 µM): 0.698
relative viability (LK-2; first compound 8 µM): 0.562
relative viability (LOU-NH91; first compound 0.08 µM): 0.525
relative viability (LOU-NH91; first compound 0.253 µM): 0.404
relative viability (LOU-NH91; first compound 0.8 µM): 0.443
relative viability (LOU-NH91; first compound 2.53 µM): 0.558
relative viability (LOU-NH91; first compound 8 µM): 0.539
relative viability (NCI-H1355; first compound 0.08 µM): 0.338
relative viability (NCI-H1355; first compound 0.253 µM): 0.387
relative viability (NCI-H1355; first compound 0.8 µM): 0.329
relative viability (NCI-H1355; first compound 2.53 µM): 0.388
relative viability (NCI-H1355; first compound 8 µM): 0.407
relative viability (NCI-H1650; first compound 0.08 µM): 0.287
relative viability (NCI-H1650; first compound 0.253 µM): 0.378
relative viability (NCI-H1650; first compound 0.8 µM): 0.265
relative viability (NCI-H1650; first compound 2.53 µM): 0.352
relative viability (NCI-H1650; first compound 8 µM): 0.271
relative viability (NCI-H1666; first compound 0.08 µM): 0.603
relative viability (NCI-H1666; first compound 0.253 µM): 0.653
relative viability (NCI-H1666; first compound 0.8 µM): 0.606
relative viability (NCI-H1666; first compound 2.53 µM): 0.715
relative viability (NCI-H1666; first compound 8 µM): 0.666
relative viability (NCI-H1734; first compound 0.08 µM): 0.316
relative viability (NCI-H1734; first compound 0.253 µM): 0.262
relative viability (NCI-H1734; first compound 0.8 µM): 0.372
relative viability (NCI-H1734; first compound 2.53 µM): 0.347
relative viability (NCI-H1734; first compound 8 µM): 0.328
relative viability (NCI-H1755; first compound 0.08 µM): 0.448
relative viability (NCI-H1755; first compound 0.253 µM): 0.337
relative viability (NCI-H1755; first compound 0.8 µM): 0.447
relative viability (NCI-H1755; first compound 2.53 µM): 0.416
relative viability (NCI-H1755; first compound 8 µM): 0.46
relative viability (NCI-H2009; first compound 0.08 µM): 0.202
relative viability (NCI-H2009; first compound 0.253 µM): 0.307
relative viability (NCI-H2009; first compound 0.8 µM): 0.178
relative viability (NCI-H2009; first compound 2.53 µM): 0.226
relative viability (NCI-H2009; first compound 8 µM): 0.188
relative viability (NCI-H2228; first compound 0.08 µM): 0.517
relative viability (NCI-H2228; first compound 0.253 µM): 0.58
relative viability (NCI-H2228; first compound 0.8 µM): 0.606
relative viability (NCI-H2228; first compound 2.53 µM): 0.587
relative viability (NCI-H2228; first compound 8 µM): 0.417
relative viability (NCI-H2347; first compound 0.08 µM): 0.432
relative viability (NCI-H2347; first compound 0.253 µM): 0.418
relative viability (NCI-H2347; first compound 0.8 µM): 0.463
relative viability (NCI-H2347; first compound 2.53 µM): 0.455
relative viability (NCI-H2347; first compound 8 µM): 0.407
relative viability (NCI-H2405; first compound 0.08 µM): 0.522
relative viability (NCI-H2405; first compound 0.253 µM): 0.516
relative viability (NCI-H2405; first compound 0.8 µM): 0.478
relative viability (NCI-H2405; first compound 2.53 µM): 0.456
relative viability (NCI-H2405; first compound 8 µM): 0.33
relative viability (NCI-H358; first compound 0.08 µM): 0.141
relative viability (NCI-H358; first compound 0.253 µM): 0.132
relative viability (NCI-H358; first compound 0.8 µM): 0.127
relative viability (NCI-H358; first compound 2.53 µM): 0.147
relative viability (NCI-H358; first compound 8 µM): 0.143
relative viability (NCI-H520; first compound 0.08 µM): 0.265
relative viability (NCI-H520; first compound 0.253 µM): 0.22
relative viability (NCI-H520; first compound 0.8 µM): 0.191
relative viability (NCI-H520; first compound 2.53 µM): 0.217
relative viability (NCI-H520; first compound 8 µM): 0.213
relative viability (NCI-H727; first compound 0.08 µM): 0.544
relative viability (NCI-H727; first compound 0.253 µM): 0.661
relative viability (NCI-H727; first compound 0.8 µM): 0.696
relative viability (NCI-H727; first compound 2.53 µM): 0.676
relative viability (NCI-H727; first compound 8 µM): 0.609
relative viability (NCI-H838; first compound 0.08 µM): 0.252
relative viability (NCI-H838; first compound 0.253 µM): 0.251
relative viability (NCI-H838; first compound 0.8 µM): 0.203
relative viability (NCI-H838; first compound 2.53 µM): 0.244
relative viability (NCI-H838; first compound 8 µM): 0.215
relative viability (SW 1573; first compound 0.08 µM): 0.422
relative viability (SW 1573; first compound 0.253 µM): 0.318
relative viability (SW 1573; first compound 0.8 µM): 0.249
relative viability (SW 1573; first compound 2.53 µM): 0.214
relative viability (SW 1573; first compound 8 µM): 0.146
relative viability (UMC-11; first compound 0.08 µM): 0.313
relative viability (UMC-11; first compound 0.253 µM): 0.35
relative viability (UMC-11; first compound 0.8 µM): 0.315
relative viability (UMC-11; first compound 2.53 µM): 0.278
relative viability (UMC-11; first compound 8 µM): 0.367
